Series [1] deals with MDA-MB-231. As to the kind of experiment: Cell growth inhibition assay, MDA-MB-231. The class given is cell-based. The conditions noted are these: Homo sapiens; MDA-MB-231, breast carcinoma; 72 h viability assay, CellTiterGlo; mean of 3 ± SEM; read-out: IC50 (inhibition of cellular proliferation). The protocol:
Cells were plated at a density of between 500 to 5000 cells per well for adherent cell lines depending on doubling time, and 15,000 cells per well for lymphoblastic leukemia cell lines, in a 96-well plate in 200 μl of growth media. Plates were incubated overnight at 37 °C before adding the inhibitors. Inhibitors were serially diluted from the stock solutions in complete medium and added to the cells. Incubation in the presence of inhibitors was continued for […]. Cell viability was assessed by the AlamarBlue (Invitrogen) or CellTiterBlue/Glo (Promega) method according to manufacturer’s instructions. The curve fits and IC50 values were generated in PRISM (GraphPad, San Diego, CA).
(In general: Cellular ATP, detected with luciferase, serves as a proxy for viable cell number.)

Series [2] concerns 134036 HGSOC PDX. In words: HGSOC PDX model 134036. In kind it is in vivo, NSG mice. As to conditions: 134036 C5 platinum refractory PDX; 20 mg/kg i.v. biweekly, 6 weeks. The protocol:
(§1) Two to three mm ovarian tumor fragments were subcutaneously engrafted in the left flank of NSG mice and monitored by physical palpation for tumor growth and engraftment. Engrafted tumors were measured twice a week using digital Vernier calipers and maximum tumor diameter + perpendicular tumor length were digitally recorded into the Study Director software (v 3.0/4.0 StudyLog). Tumor volume was calculated automatically (tumor volume (mm^3) = 0.5236 x [larger diameter (mm) x smaller diameter (mm)^2]). Mice were randomized to treatment once their tumor volume reach 180–300 mm^3 and tumor measurements were performed twice a week up to 120 days or when the tumor volume reaches 700 mm^3.
(§2) Time to progressive disease (PD): Defined as the time (in days) from beginning of treatment to an increase in average tumor volume of >20% from the nadir (taken as the smallest average tumor volume recorded since treatment started or 200 mm^3 if nadir was <200 mm^3 as lesions smaller than this are difficult to measure with accuracy). Median time to harvest (TTH): Defined as the time (in days) from the beginning of treatment to day of harvest at 700 mm^3 and the median TTH was calculated and plotted using Kaplan-Meier curves. Based on ref. [27]. […]

In series [3] the test system is 134056 HGSOC PDX. In words: HGSOC PDX model 134056. As to conditions: 134056 platinum-sensitive PDX; 20 mg/kg i.v. biweekly, 6 weeks. The class given is in vivo, NSG mice. The protocol: as §1, §2
Series [4] has as its system MH792 LUSC PDX. As to the kind of experiment: LUSC PDX model MH792. In kind it is in vivo, NOD-SCID-IL2Rγc–/– mice. The protocol:
LUSC PDXs were generated as described in[25]. PDXs at passage 4 were defrosted and washed with PBS before counting. 200,000 to 500,000 cells were then injected in a 50:50 PBS:Matrigel mix into the flanks of NOD-SCID-IL2Rγc–/– male mice. Tumors were measured twice weekly with calipers and treatment started when tumors were between 70–120 mm^3. Mice were assigned to treatment groups based on average tumor volume per group. Mice were culled when tumors reached a volume of 600 mm^3.

Take `COc1ccc(CNc2nc(NCc3ccc(CN)cc3)nc(NN3CC(=O)NC3=O)n2)cc1` [WEHI-7326]: the IC50 in series [1] stood at 24.4 ± 3.1 nM. The Tumor response result in series [2] was “completely unresponsive”. For the same molecule, in series [3], the “Median time to harvest (TTH)” value is 78 days and the “Time to progressive disease (PD)” value was 56 days. The “Adverse effects in treatment arm” value in series [4] (MH792 PDX mice, 20 mg/kg i.v. twice a week, n = 8–10) is 1 with hind limb paralysis after 4 weeks of treatment. In series [4] (MH792 PDX, WEHI-7326 20 mg/kg i.v. biweekly, docetaxel 10 mg/kg i.p. once), this molecule displayed a Median survival of 34 days.

Values taken from article PMC7955127, “Preclinical small molecule WEHI-7326 overcomes drug resistance and elicits response in patient-derived xenograft models of human treatment-refractory tumors” (Cell Death & Disease, 2021).
